Results on 15 molecules are retold here after patent publication US20070249822A1, “Photolabile Coumarinylmethyl Esters of Cyclic Nucleotides, Methods for their Preparation and Their Use” (Forschungsverbund Berlin E.V., priority 2000, published 2007).

Some results are limits rather than exact numbers.

Data set [1] has as its system olfactory cGMP-dependent cation channel. In words: Activation of the olfactory cGMP-dependent cation channel upon photolysis of caged cGMP. Conditions: for activation of the olfactory cGMP-dependent cation channel upon photolysis: HEPES buffer. It counts as cell-based. The text has this:
The new photolabile cGMP and cAMP esters can be used successfully in the investigation of cyclic nucleotide-controlled processes.

Data set [2] can be described thus: Solubility of coumarinylmethyl-caged cyclic nucleotides in acetonitrile/HEPES buffer (saturation concentration by HPLC). The settings on record: acetonitrile/HEPES buffer (5:95), pH 7.2, room temperature. It counts as physicochemical. Here is the method:
Comparison of the Solubilities of Miscellaneous coumarinyl-methyl-caged Cyclic Nucleotides in Acetonitrile/HEPES Buffer (5:95) at pH 7.2 and Room Temperature
A suspension of the compounds in the specified solvent was treated for 5 min in an ultrasonic bath, undissolved components were removed by centrifugation, and the concentration in the solution was determined using HPLC. The following saturation concentrations were determined: […]

The subject of data set [3] is cyclic nucleotide-dependent ion channel CNCα3 (from olfactory cells). The data set can be described thus: Whole cell measurements on HEK293 cells: activation of CNCα3 by photolytic liberation of cAMP. It counts as cell-based. Conditions: axial form, 500 μM intracellular solution, UV flashes 10 to 200 ms; versus 200 μM DMN-caged cGMP on CNCα2, equal exposures. The text has this:
Activation of Cyclic Nucleotide-Dependent Ion Channels by Photolytic Liberation of Cyclic Nucleotides from the Corresponding Caged Compounds
Using whole cell measurements on HEK293 cells, the activation of the cyclic nucleotide-dependent ion channel CNCα3 (from olfactory cells) by photolytic liberation of cAMP from the axial form of the compound of Example 1 ([…]) and of the cyclic nucleotide-dependent ion channel CNCα2 (from rod photoreceptors) by photolytic liberation of cGMP from the axial form of 4,5-dimethoxy-2-nitrobenzyl ester of cGMP [DMN-caged cGMP, produced according to J. M. Nerbonne, S. Richard, J. Nargeot, H. A. Lester, Nature 310, 74 (1984)] was investigated comparatively by electrophysiological means.

For data set [4] the following is noted: cited from earlier work.
The conditions of data set [5]: cited from earlier work. This is another data set of the same source.

In the case of `Nc1nc2c(ncn2C2OC3COP(=O)(OCc4cc(=O)oc5cc(OCC(=O)O)ccc45)OC3C2O)c(=O)[nH]1` (stereo not drawn) [Example 3], the “activation of the olfactory cGMP-dependent cation channel upon photolysis” value in data set [1] is on record as “complete activation”.

As for `Nc1nc2c(ncn2C2OC3COP(=O)(OCc4cc(=O)oc5cc(OCC(=O)O)c(OCC(=O)O)cc45)OC3C2O)c(=O)[nH]1` (stereo not drawn) [[6,7-Bis(carboxymethoxy)coumarin-4-yl]methyl-caged cGMP (equ], the saturation concentration in data set [2] was above 100 µM. With `Nc1ncnc2c1ncn2C1OC2COP(=O)(OCc3cc(=O)oc4cc(OCC(=O)O)c(OCC(=O)O)cc34)OC2C1O` (stereo not drawn) [Example 1, [6,7-Bis(carboxymethoxy)coumarin-4-yl]methyl ester of cAMP], in data set [3], the “concentration of liberated cyclic nucleotide” value was “substantially higher concentrations of liberated cyclic nucleotide”. As for “(7-Methoxycoumarin-4-yl)methyl-caged 8-Br-cGMP [(7-Methoxycoumarin-4-yl)methyl-caged 8-Br-cGMP (axial)]”, in data set [2], the saturation concentration is 40 µM. On to `Nc1ncnc2c1ncn2C1OC2COP(=O)(OC(C(=O)c3ccccc3)c3ccccc3)OC2C1O` (stereo not drawn) [desyl ester of cAMP], for which the sensitivity to solvolysis result in data set [4] (aqueous buffer solutions) is reported as “sensitive to solvolysis”.

For the molecule “(7-Methoxycoumarin-4-yl)methyl-caged cGMP [(7-Methoxycoumarin-4-yl)methyl-caged cGMP (axial)]”, in data set [2], the saturation concentration was 15 µM. Still for that read-out and setting: next, “(7-Methoxycoumarin-4-yl)methyl-caged 8-Br-cGMP [(7-Methoxycoumarin-4-yl)methyl-caged 8-Br-cGMP (equatorial)]”: 20 µM; “(7-Methoxycoumarin-4-yl)methyl-caged cAMP”: 15 µM. For the molecule `COc1ccc2c(COP3(=O)OCC4OC(n5cnc6c(=O)[nH]c(N)nc65)C(O)C4O3)cc(=O)oc2c1` (stereo not drawn) [7-methoxycoumarinylmethyl-caged cGMP], in data set [1], the “activation of the olfactory cGMP-dependent cation channel upon photolysis” value is listed as “not more than partially”. The molecule “(7-Methoxycoumarin-4-yl)methyl-caged cGMP [(7-Methoxycoumarin-4-yl)methyl-caged cGMP (equatorial)]” showed a saturation concentration in data set [2] of 25 µM. As for `Nc1nc2c(ncn2C2OC3COP(=O)(OCc4cc(=O)oc5cc(OCC(=O)O)c(OCC(=O)O)cc45)OC3C2O)c(=O)[nH]1` (stereo not drawn) [Compound 10, [6,7-bis(carboxymethoxy)coumarin-4-yl]methyl ester of cGMP], the “amount of incident light for comparable activation of the channel” value in data set [1] (333 nm, compared to the 4,5-dimethoxy-2-nitro-benzyl ester of cGMP) is reported as “substantially smaller amounts of incident light”. Take `Nc1ncnc2c1ncn2C1OC2COP(=O)(OCc3cc(=O)oc4cc(OCC(=O)O)ccc34)OC2C1O` (stereo not drawn) [[7-(Carboxymethoxy)coumarin-4-yl]methyl-caged cAMP (axial)]: in data set [2], the saturation concentration worked out at 900 µM. As for `Nc1ncnc2c1ncn2C1OC2COP(=O)(OCc3ccc4c(c3)C(=O)c3ccccc3C4=O)OC2C1O` (stereo not drawn) [(anthraquinon-2-yl)methyl ester of cAMP], the “solubility in aqueous buffer solutions” value in data set [5] is reported as “insufficient solubility”. For the molecule `COc1ccc2c(COP3(=O)OCC4OC(n5cnc6c(N)ncnc65)C(O)C4O3)cc(=O)oc2c1` (single isomer, unassigned) [equatorial isomer of the (7-methoxycoumarin-4-yl)methyl ester of cAMP, (7-methoxycoumarin-4-yl)methyl ester of cAMP], the hydrolytic halflife in data set [4] (Ringer's solution) was 60 h. As to `Nc1ncnc2c1ncn2C1OC2COP(=O)(OCc3ccc4ccccc4c3)OC2C1O` (stereo not drawn) [(naphth-2-yl)methyl ester of cAMP], the “solubility in aqueous buffer solutions” value in data set [5] was “insufficient solubility”.
